Measured values: ChEMBL document CHEMBL4334464, “From Phenylthiazoles to Phenylpyrazoles: Broadening the Antibacterial Spectrum toward Carbapenem-Resistant Bacteria” (J Med Chem, 2019)
Values after ≈ are worked out from the molar mass of the structure shown. Active and inactive are the calls of the source. No cut-off for these calls is given here.

Tests used:
Staphylococcus aureus [1] = assay: Antibacterial activity against methicillin-resistant Staphylococcus aureus NRS384-USA300 clinical isolates after 18 to 20 hrs in aerobic condition by CLSI protocol based broth microdilution assay; type: functional
Staphylococcus aureus [2] = assay: Antibacterial activity against Methicillin-sensitive Staphylococcus aureus ATCC 6538 clinical isolates after 18 to 20 hrs in aerobic condition by CLSI protocol based broth microdilution assay; type: functional
Staphylococcus aureus [3] = assay: Antibacterial activity against Methicillin-resistant Staphylococcus aureus NRS123-USA400 clinical isolates after 18 to 20 hrs in aerobic condition by CLSI protocol based broth microdilution assay; type: functional
Staphylococcus aureus [4] = assay: Antibacterial activity against Methicillin-resistant Staphylococcus aureus USA700-NRS386 clinical isolates after 18 to 20 hrs in aerobic condition by CLSI protocol based broth microdilution assay; type: functional
Staphylococcus aureus [5] = assay: Antibacterial activity against vancomycin-resistant Staphylococcus aureus isolate 10 after 18 to 20 hrs in aerobic condition by CLSI-based broth microdilution assay; type: functional
Staphylococcus aureus [6] = assay: Antibacterial activity against vancomycin-resistant Staphylococcus aureus isolate 12 after 18 to 20 hrs in aerobic condition by CLSI-based broth microdilution assay; type: functional
Staphylococcus aureus [7] = assay: Bactericidal activity against methicillin-resistant Staphylococcus aureus NRS123-USA400 clinical isolates at 5 times MIC incubated over 24 hrs followed by replating on tryptic soy agar plate and further incubated for 18 to 20 hrs by time kill assay; type: functional, organism-based
Enterococcus faecalis = assay: Antibacterial activity against vancomycin-resistant Enterococcus faecalis ATCC 51299 clinical isolates after 18 to 20 hrs in aerobic condition by CLSI-based broth microdilution assay; type: functional
Streptococcus pneumoniae [8] = assay: Antibacterial activity against methicillin-resistant Streptococcus pneumoniae ATCC 700677 clinical isolates after 18 to 20 hrs by CLSI-based broth microdilution assay; type: functional
Acinetobacter baumannii [9] = assay: Antibacterial activity against Acinetobacter baumannii ATCC BAA 1141 clinical isolates after 18 to 20 hrs in aerobic condition by CLSI-based broth microdilution assay; type: functional
Acinetobacter baumannii [10] = assay: Antibacterial activity against Acinetobacter baumannii NR 17785 clinical isolates after 18 to 20 hrs in aerobic condition by CLSI-based broth microdilution assay; type: functional
Escherichia coli [11] = assay: Antibacterial activity against Escherichia coli BW25113 clinical isolates after 18 to 20 hrs in aerobic condition by CLSI-based broth microdilution assay; type: functional
Escherichia coli [12] = assay: Antibacterial activity against Escherichia coli ATCC 25922 clinical isolates after 18 to 20 hrs in aerobic condition by CLSI-based broth microdilution assay; type: functional
[13] = Antibacterial activity against Enterobacter cloacae subsp. cloacae ATCC BAA-1143 clinical isolates after 18 to 20 hrs in aerobic condition by CLSI-based broth microdilution assay; type: functional
Salmonella enteritidis [14] = assay: Antibacterial activity against Salmonella enteritidis ATCC 13076 clinical isolates after 18 to 20 hrs in aerobic condition by CLSI-based broth microdilution assay; type: functional, Salmonella enterica subsp. enterica serovar Enteritidis; conditions: Salmonella enterica
Salmonella enteritidis [15] = assay: Antibacterial activity against Salmonella enteritidis ATCC 14028 clinical isolates after 18 to 20 hrs in aerobic condition by CLSI-based broth microdilution assay; type: functional, Salmonella enterica subsp. enterica serovar Enteritidis; conditions: Salmonella enterica
Salmonella typhimurium = assay: Antibacterial activity against Salmonella typhimurium ATCC 700720 after 18 to 20 hrs in aerobic condition by CLSI-based broth microdilution assay; type: functional, Salmonella enterica subsp. enterica serovar Typhimurium; conditions: Salmonella enterica
Klebsiella pneumoniae [16] = assay: Antibacterial activity against carbapenem-resistant Klebsiella pneumoniae ATCC BAA-1705 clinical isolates after 18 to 20 hrs in aerobic condition by CLSI-based broth microdilution assay; type: functional
Klebsiella pneumoniae [17] = assay: Antibacterial activity against carbapenem-resistant Klebsiella pneumoniae ATCC BAA-2146 clinical isolates after 18 to 20 hrs in aerobic condition by CLSI-based broth microdilution assay; type: functional
Pseudomonas aeruginosa [18] = assay: Antibacterial activity against carbapenem-resistant Pseudomonas aeruginosa ATCC 1744 clinical isolates after 18 to 20 hrs in aerobic condition by CLSI-based broth microdilution assay; type: functional
[19] = target: T1, Ditrans,polycis-undecaprenyl-diphosphate synthase ((2E,6E)-farnesyl-diphosphate specific) (Escherichia coli (strain K12)) (UniProt P60472); assay: Inhibition of Escherichia coli UPPS using FPP/IPP as substrate preincubated for 30 mins followed by substrates addition and measured after 30 mins by malachite green reagent based assay
T1 sequence (whole entry): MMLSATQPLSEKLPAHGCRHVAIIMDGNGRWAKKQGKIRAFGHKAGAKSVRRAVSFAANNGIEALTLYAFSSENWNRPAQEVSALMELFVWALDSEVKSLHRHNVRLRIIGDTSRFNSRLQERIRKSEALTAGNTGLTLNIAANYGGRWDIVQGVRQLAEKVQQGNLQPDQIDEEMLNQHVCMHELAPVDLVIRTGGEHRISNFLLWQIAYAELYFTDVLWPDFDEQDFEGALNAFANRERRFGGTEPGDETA

Staphylococcus aureus [20] = assay: Ratio of MBC to MIC for Methicillin-sensitive Staphylococcus aureus ATCC 6538 clinical isolates; type: functional
Enterococcus faecium = assay: Ratio of MBC to MIC for vancomycin-resistant Enterococcus faecium ATCC 700221 clinical isolates; type: functional
Listeria monocytogenes = assay: Ratio of MBC to MIC for Listeria monocytogenes ATCC 19111 clinical isolates; type: functional
Streptococcus pneumoniae [21] = assay: Ratio of MBC to MIC for cephalosporin-resistant Streptococcus pneumoniae ATCC 51916 clinical isolates; type: functional
Acinetobacter baumannii [22] = assay: Ratio of MBC to MIC for Acinetobacter baumannii ATCC 19606 clinical isolates; type: functional, ATCC 19606 = CIP 70.34 = JCM 6841
Acinetobacter baumannii [23] = assay: Ratio of MBC to MIC for Acinetobacter baumannii ATCC BAA 1747 clinical isolates; type: functional
Escherichia coli [24] = assay: Ratio of MBC to MIC for Escherichia coli ATCC 25922 clinical isolates; type: functional
Escherichia coli [25] = assay: Ratio of MBC to MIC for Escherichia coli ATCC 35150 clinical isolates; type: functional
Escherichia coli [26] = assay: Ratio of MBC to MIC for Escherichia coli ATCC 1411 clinical isolates; type: functional
[27] = system: Enterobacter cloacae subsp. cloacae; assay: Ratio of MBC to MIC for Enterobacter cloacae subsp. cloacae ATCC BAA-1143 clinical isolates; type: functional
Klebsiella pneumoniae [28] = assay: Ratio of MBC to MIC for Klebsiella pneumoniae BAA-1144 clinical isolates; type: functional
Salmonella enterica = assay: Ratio of MBC to MIC for Salmonella enterica NR-170 clinical isolates; type: functional
Salmonella enteritidis [29] = assay: Ratio of MBC to MIC for Salmonella enteritidis ATCC 14028 clinical isolates; type: functional, Salmonella enterica subsp. enterica serovar Enteritidis
Shigella flexneri = assay: Ratio of MBC to MIC for Shigella flexneri ATCC 9199 clinical isolates; type: functional
Pseudomonas aeruginosa [30] = assay: Ratio of MBC to MIC for Pseudomonas aeruginosa ATCC 9027 clinical isolates; type: functional
Pseudomonas aeruginosa [31] = assay: Ratio of MBC to MIC for Pseudomonas aeruginosa ATCC 25619 clinical isolates; type: functional
Pseudomonas aeruginosa [32] = assay: Ratio of MBC to MIC for Pseudomonas aeruginosa ATCC 15442 clinical isolates; type: functional
Escherichia coli [33] = assay: microbe, parasite or virus in culture; conditions: ATCC 1411
Description: Antibacterial activity against Escherichia coli ATCC 1411 clinical isolates after 18 to 20 hrs in aerobic condition by CLSI-based broth microdilution assay

Pseudomonas aeruginosa [34] = assay: microbe, parasite or virus in culture; conditions: ATCC 25619
Description: Antibacterial activity against Pseudomonas aeruginosa ATCC 25619 clinical isolates after 18 to 20 hrs in aerobic condition by CLSI-based broth microdilution assay

Compound | MIC (Staphylococcus aureus [1]) | MIC (Staphylococcus aureus [2]) | MIC (Staphylococcus aureus [3]) | MIC (Staphylococcus aureus [4]) | MIC (Staphylococcus aureus [5]) | MIC (Staphylococcus aureus [6]) | Activity (Staphylococcus aureus [7]) | MIC (Enterococcus faecalis) | MIC (Streptococcus pneumoniae [8]) | MIC (Acinetobacter baumannii [9]) | MIC (Acinetobacter baumannii [10]) | MIC (Escherichia coli [11]) | MIC (Escherichia coli [12]) | MIC [13] | MIC (Salmonella enteritidis [14]) | MIC (Salmonella enteritidis [15]) | MIC (Salmonella typhimurium) | Ratio (Staphylococcus aureus [20]) | Ratio (Enterococcus faecium) | Ratio (Listeria monocytogenes) | further results
C/C(=N\NC(=N)N)c1cnn(-c2ccc(C#Cc3ccccc3)cc2)c1C | 1 µg/mL (≈ 2.81 µM) | 1 µg/mL (≈ 2.81 µM) | 2 µg/mL (≈ 5.61 µM) | 2 µg/mL (≈ 5.61 µM) | 1 µg/mL (≈ 2.81 µM) | 2 µg/mL (≈ 5.61 µM) | Active | 1 µg/mL (≈ 2.81 µM) | 2 µg/mL (≈ 5.61 µM) | 4 µg/mL (≈ 11.2 µM) | 4 µg/mL (≈ 11.2 µM) | 8 µg/mL (≈ 22.4 µM) | 4 µg/mL (≈ 11.2 µM) | 8 µg/mL (≈ 22.4 µM) | 8 µg/mL (≈ 22.4 µM) | 16 µg/mL (≈ 44.9 µM) | 8 µg/mL (≈ 22.4 µM) | <=2 | <3 | <3 | MIC (Klebsiella pneumoniae [16]): 16 µg/mL (≈ 44.9 µM); MIC (Klebsiella pneumoniae [17]): 16 µg/mL (≈ 44.9 µM); MIC (Pseudomonas aeruginosa [18]): 16 µg/mL (≈ 44.9 µM); inhibition [19]: inactive; Ratio (Streptococcus pneumoniae [21]): <3; Ratio (Acinetobacter baumannii [22]): >=1; Ratio (Acinetobacter baumannii [23]): >=1; Ratio (Escherichia coli [24]): >=1; Ratio (Escherichia coli [25]): >=1; Ratio (Escherichia coli [26]): >=1; Ratio [27]: > 1; Ratio (Klebsiella pneumoniae [28]): >=1; Ratio (Salmonella enterica): >=1; Ratio (Salmonella enteritidis [29]): >=1; Ratio (Shigella flexneri): >=1; Ratio (Pseudomonas aeruginosa [30]): >=1; Ratio (Pseudomonas aeruginosa [31]): >=1; Ratio (Pseudomonas aeruginosa [32]): >=1; MIC (Escherichia coli [33]): 8 µg/mL (≈ 22.4 µM); MIC (Pseudomonas aeruginosa [34]): 32 µg/mL (≈ 89.8 µM)
C/C(=N\NC(=N)N)c1cnn(-c2ccc(C#CC3(O)CCCCC3)cc2)c1C | 2 µg/mL (≈ 5.28 µM) | 2 µg/mL (≈ 5.28 µM) | 2 µg/mL (≈ 5.28 µM) | 2 µg/mL (≈ 5.28 µM) | 2 µg/mL (≈ 5.28 µM) | 2 µg/mL (≈ 5.28 µM) | Active | 2 µg/mL (≈ 5.28 µM) | 2 µg/mL (≈ 5.28 µM) | 8 µg/mL (≈ 21.1 µM) | 8 µg/mL (≈ 21.1 µM) | 8 µg/mL (≈ 21.1 µM) | 8 µg/mL (≈ 21.1 µM) | 16 µg/mL (≈ 42.3 µM) | 32 µg/mL (≈ 84.5 µM) | 32 µg/mL (≈ 84.5 µM) | 64 µg/mL (≈ 169 µM) | <=2 | <3 | <3 | MIC (Klebsiella pneumoniae [16]): 64 µg/mL (≈ 169 µM); MIC (Klebsiella pneumoniae [17]): > 64 µg/mL; MIC (Pseudomonas aeruginosa [18]): 64 µg/mL (≈ 169 µM); Ratio (Streptococcus pneumoniae [21]): <3; Ratio (Acinetobacter baumannii [22]): >=1; Ratio (Acinetobacter baumannii [23]): >=1; Ratio (Escherichia coli [24]): >=1; Ratio (Escherichia coli [25]): >=1; Ratio (Escherichia coli [26]): >=1; Ratio [27]: > 1; Ratio (Klebsiella pneumoniae [28]): >=1; Ratio (Salmonella enterica): >=1; Ratio (Salmonella enteritidis [29]): >=1; Ratio (Shigella flexneri): >=1; Ratio (Pseudomonas aeruginosa [30]): >=1; Ratio (Pseudomonas aeruginosa [31]): >=1; Ratio (Pseudomonas aeruginosa [32]): >=1; MIC (Escherichia coli [33]): 32 µg/mL (≈ 84.5 µM); MIC (Pseudomonas aeruginosa [34]): 32 µg/mL (≈ 84.5 µM)
CCCCCC#Cc1ccc(-n2ncc(/C(C)=N/NC3=NCCN3)c2C)cc1 | 2 µg/mL (≈ 5.31 µM) | 2 µg/mL (≈ 5.31 µM) | 4 µg/mL (≈ 10.6 µM) | 2 µg/mL (≈ 5.31 µM) | 2 µg/mL (≈ 5.31 µM) | 2 µg/mL (≈ 5.31 µM) | Active | 4 µg/mL (≈ 10.6 µM) | 2 µg/mL (≈ 5.31 µM) | > 128 µg/mL | > 128 µg/mL | > 128 µg/mL | > 128 µg/mL | > 128 µg/mL | > 128 µg/mL | > 128 µg/mL | > 128 µg/mL | <=2 | <3 | <3 | inhibition [19]: inactive; Ratio (Streptococcus pneumoniae [21]): <3; Ratio (Acinetobacter baumannii [22]): >=1; Ratio (Acinetobacter baumannii [23]): >=1; Ratio (Escherichia coli [24]): >=1; Ratio (Escherichia coli [25]): >=1; Ratio (Escherichia coli [26]): >=1; Ratio [27]: > 1; Ratio (Klebsiella pneumoniae [28]): >=1; Ratio (Salmonella enterica): >=1; Ratio (Salmonella enteritidis [29]): >=1; Ratio (Shigella flexneri): >=1; Ratio (Pseudomonas aeruginosa [30]): >=1; Ratio (Pseudomonas aeruginosa [31]): >=1; Ratio (Pseudomonas aeruginosa [32]): >=1; MIC (Escherichia coli [33]): > 128 µg/mL; MIC (Pseudomonas aeruginosa [34]): > 128 µg/mL
